From ChEMBL document CHEMBL5346943, “Discovery and Structural Optimization of Novel Quinolone Derivatives as Potent Irreversible Pan-Fibroblast Growth Factor Receptor Inhibitors for Treating Solid Tumors” (J Med Chem, 2023)

Legend:
[1] = molecular target: Fibroblast growth factor receptor 2 (Homo sapiens, UniProt P21802); assay: Inhibition of FGFR2 (unknown origin) incubated for 10 mins followed by substrate addition measured after 60 mins by ADP-Glo luminescence assay
[2] = system: Huh-7; assay: Antiproliferative activity against human Huh-7 cells incubated for 72 hrs by Cell counting kit 8 method; type: functional, cell-based; settings: Huh-7, 72 h
[3] = system: Hep 3B2; assay: Antiproliferative activity against human Hep3B cells incubated for 72 hrs by Cell counting kit 8 method; type: functional, cell-based
[4] = molecular target: Fibroblast growth factor receptor 3 (Homo sapiens, UniProt P22607); assay: Inhibition of FGFR3 (unknown origin) incubated for 10 mins followed by substrate addition measured after 60 mins by ADP-Glo luminescence assay
[5] = Microsomal stability in human liver microsomes assessed as half life preincubated for 10 mins followed by NADPH addition measured upto 60 mins by LC-MS/MS analysis; type: ADME, Microsome; settings: time < 70 min
[6] = Microsomal stability in human liver microsomes assessed as intrinsic clearance preincubated for 10 mins followed by NADPH addition measured upto 60 mins by LC-MS/MS analysis; type: ADME, Microsome; settings: time < 70 min, read-out: CLH
[7] = Permeability of the compound at 10 uM preincubated in acceptor compartment for 16 hrs followed by 16 hrs incubation in donor compartment by PAMPA based LC-MS/MS analysis; type: ADME; settings: time 32 hrs, read-out: permeability
[8] = Ionization constant, pKa of the compound in PBS buffer at pH 1.42 to 12.33 by electrochemical method; type: physicochemical
[9] = C0 in Sprague-Dawley rat measured at 2 mg/kg, iv for 0.083 to 24 hrs by LC-MS/MS analysis; type: ADME, organism-based; settings: in vivo, time 0.083-24 hrs
[10] = Cmax in Sprague-Dawley rat measured at 2 mg/kg, iv for 0.083 to 24 hrs by LC-MS/MS analysis; type: ADME, organism-based; design: time upper 24 hrs, time lower 0.083 hrs, dose 2 mg/kg, route iv; settings: in vivo
[11] = Half life in Sprague-Dawley rat measured at 2 mg/kg, iv for 0.083 to 24 hrs by LC-MS/MS analysis; type: ADME, organism-based; settings: in vivo, time 0.083-24 hrs
[12] = Tmax in Sprague-Dawley rat measured at 2 mg/kg, iv for 0.083 to 24 hrs by LC-MS/MS analysis; type: ADME, organism-based; settings: in vivo, time 0.083-24 hrs
[13] = AUC (0 to infinity) in Sprague-Dawley rat measured at 2 mg/kg, iv for 0.083 to 24 hrs by LC-MS/MS analysis; type: ADME, organism-based; design: time lower 0.083 hrs, dose 2 mg/kg, time upper 24 hrs, route iv; settings: in vivo
[14] = MRT (0 to t) in Sprague-Dawley rat measured at 2 mg/kg, iv for 0.083 to 24 hrs by LC-MS/MS analysis; type: ADME, organism-based; settings: in vivo, time 0.083-24 hrs
[15] = Clearance in Sprague-Dawley rat measured at 2 mg/kg, iv for 0.083 to 24 hrs by LC-MS/MS analysis; type: ADME, organism-based; settings: in vivo, time 0.083-24 hrs
[16] = Volume of distribution at steady state in Sprague-Dawley rat measured at 2 mg/kg, iv for 0.083 to 24 hrs by LC-MS/MS analysis; type: ADME, organism-based; settings: in vivo, time 0.083-24 hrs, read-out: Vdss
[17] = Half life in Sprague-Dawley rat measured at 10 mg/kg, po for 0.083 to 24 hrs by LC-MS/MS analysis; type: ADME, organism-based; settings: in vivo, time 0.083-24 hrs
[18] = Tmax in Sprague-Dawley rat measured at 10 mg/kg, po for 0.083 to 24 hrs by LC-MS/MS analysis; type: ADME, organism-based; settings: in vivo, time 0.083-24 hrs
[19] = AUC (0 to t) in Sprague-Dawley rat measured at 10 mg/kg, po for 0.083 to 24 hrs by LC-MS/MS analysis; type: ADME, organism-based; design: dose 10 mg/kg, time upper 24 hrs, time lower 0.083 hrs, route po; settings: in vivo
[20] = AUC (0 to infinity) in Sprague-Dawley rat measured at 10 mg/kg, po for 0.083 to 24 hrs by LC-MS/MS analysis; type: ADME, organism-based; design: dose 10 mg/kg, time upper 24 hrs, time lower 0.083 hrs, route po; settings: in vivo
[21] = MRT (0 to t) in Sprague-Dawley rat measured at 10 mg/kg, po for 0.083 to 24 hrs by LC-MS/MS analysis; type: ADME, organism-based; settings: in vivo, time 0.083-24 hrs
[22] = MRT (0 to infinity) in Sprague-Dawley rat measured at 10 mg/kg, po for 0.083 to 24 hrs by LC-MS/MS analysis; type: ADME, organism-based; settings: in vivo, time 0.083-24 hrs
[23] = Cmax in Sprague-Dawley rat measured at 100 mg/kg, po for 0.083 to 24 hrs by LC-MS/MS analysis; type: ADME, organism-based; design: time upper 24 hrs, dose 100 mg/kg, time lower 0.083 hrs, route po; settings: in vivo
[24] = Half life in Sprague-Dawley rat measured at 30 mg/kg, po for 0.083 to 24 hrs by LC-MS/MS analysis; type: ADME, organism-based; settings: in vivo, time 0.083-24 hrs
[25] = Half life in Sprague-Dawley rat measured at 60 mg/kg, po for 0.083 to 24 hrs by LC-MS/MS analysis; type: ADME, organism-based; settings: in vivo, time 0.083-24 hrs
[26] = Tmax in Sprague-Dawley rat measured at 30 mg/kg, po for 0.083 to 24 hrs by LC-MS/MS analysis; type: ADME, organism-based; settings: in vivo, time 0.083-24 hrs
[27] = Tmax in Sprague-Dawley rat measured at 60 mg/kg, po for 0.083 to 24 hrs by LC-MS/MS analysis; type: ADME, organism-based; settings: in vivo, time 0.083-24 hrs
[28] = AUC(0 to t) in Sprague-Dawley rat measured at 60 mg/kg, po for 0.083 to 24 hrs by LC-MS/MS analysis; type: ADME, organism-based; design: time upper 24 hrs, time lower 0.083 hrs, dose 60 mg/kg, route po; settings: in vivo
[29] = AUC(0 to t) in Sprague-Dawley rat measured at 100 mg/kg, po for 0.083 to 24 hrs by LC-MS/MS analysis; type: ADME, organism-based; design: time upper 24 hrs, dose 100 mg/kg, time lower 0.083 hrs, route po; settings: in vivo
[30] = AUC(0 to infinity) in Sprague-Dawley rat measured at 30 mg/kg, po for 0.083 to 24 hrs by LC-MS/MS analysis; type: ADME, organism-based; design: time upper 24 hrs, dose 30 mg/kg, time lower 0.083 hrs, route po; settings: in vivo
[31] = AUC(0 to infinity) in Sprague-Dawley rat measured at 100 mg/kg, po for 0.083 to 24 hrs by LC-MS/MS analysis; type: ADME, organism-based; design: dose 100 mg/kg, time 0.083-24 hrs, route po; settings: in vivo
[32] = Antiproliferative activity against human RBE cells incubated for 72 hrs by Cell counting kit 8 method; type: functional, cell-based
[33] = system: HT-29; assay: Antiproliferative activity against human HT-29 cells incubated for 72 hrs by Cell counting kit 8 method; type: functional, cell-based; settings: HT-29, 72 h
[34] = system: NCI-H1581; assay: Antiproliferative activity against human NCI-H1581 cells incubated for 72 hrs by Cell counting kit 8 method; type: functional, cell-based; settings: NCI-H1581, 72 h
[35] = system: SNU-16; assay: Antiproliferative activity against human SNU-16 cells incubated for 72 hrs by Cell counting kit 8 method; type: functional, cell-based; settings: SNU-16, 72 h
[36] = system: Huh-7; assay: Antitumor activity against human Huh-7 cells xenografted in BALB/c nude mouse assessed as tumor growth inhibition once daily at 60 mg/kg, po for 24 days relative to control; type: functional; design: scale not given: the % may be the effect or the level left; settings: time 24 day
[37] = system: Huh-7; assay: Antitumor activity against human Huh-7 cells xenografted in BALB/c nude mouse assessed as tumor growth inhibition once daily at 30 mg/kg, po for 24 days relative to control; type: functional; design: scale not given: the % may be the effect or the level left; settings: time 24 day
[38] = system: NCI-H1581; assay: Antitumor activity against human NCI-H1581 cells xenografted in BALB/c nude mouse assessed as tumor growth inhibition once daily at 60 mg/kg, po for 24 days relative to control; type: functional; design: scale not given: the % may be the effect or the level left; settings: time 24 day
[39] = Toxicity in […] nude mouse xenografted with Huh-7 cells assessed as change in body weight once daily at 15 to 60 mg/kg, po for 24 days relative to control; type: organism-based; settings: in vivo, 576 h, dose 15-60 mg/kg, time 24 day

Fibroblast growth factor receptor 3, sequence (P22607 whole entry): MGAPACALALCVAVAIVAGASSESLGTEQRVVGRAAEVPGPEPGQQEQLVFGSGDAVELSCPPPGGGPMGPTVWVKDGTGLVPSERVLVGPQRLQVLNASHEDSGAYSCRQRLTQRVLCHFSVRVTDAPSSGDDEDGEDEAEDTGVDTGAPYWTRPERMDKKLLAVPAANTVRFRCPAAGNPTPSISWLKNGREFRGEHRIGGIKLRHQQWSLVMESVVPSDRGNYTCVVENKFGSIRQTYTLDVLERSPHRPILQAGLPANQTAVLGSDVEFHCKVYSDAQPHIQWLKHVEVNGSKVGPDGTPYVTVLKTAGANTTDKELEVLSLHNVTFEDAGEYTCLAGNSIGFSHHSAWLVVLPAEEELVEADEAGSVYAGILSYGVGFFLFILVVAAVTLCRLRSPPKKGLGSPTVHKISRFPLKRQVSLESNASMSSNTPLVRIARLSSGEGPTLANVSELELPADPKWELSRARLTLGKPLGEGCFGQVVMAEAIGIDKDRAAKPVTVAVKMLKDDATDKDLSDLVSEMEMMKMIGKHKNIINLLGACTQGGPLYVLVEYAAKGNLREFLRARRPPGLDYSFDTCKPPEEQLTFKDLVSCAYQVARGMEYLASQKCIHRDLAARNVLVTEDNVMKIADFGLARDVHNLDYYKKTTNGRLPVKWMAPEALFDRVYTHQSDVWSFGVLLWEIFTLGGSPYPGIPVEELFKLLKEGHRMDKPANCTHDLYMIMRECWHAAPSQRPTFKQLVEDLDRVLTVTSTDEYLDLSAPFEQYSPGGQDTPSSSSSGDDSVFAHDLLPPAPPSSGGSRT
Fibroblast growth factor receptor 2, sequence (P21802 whole entry): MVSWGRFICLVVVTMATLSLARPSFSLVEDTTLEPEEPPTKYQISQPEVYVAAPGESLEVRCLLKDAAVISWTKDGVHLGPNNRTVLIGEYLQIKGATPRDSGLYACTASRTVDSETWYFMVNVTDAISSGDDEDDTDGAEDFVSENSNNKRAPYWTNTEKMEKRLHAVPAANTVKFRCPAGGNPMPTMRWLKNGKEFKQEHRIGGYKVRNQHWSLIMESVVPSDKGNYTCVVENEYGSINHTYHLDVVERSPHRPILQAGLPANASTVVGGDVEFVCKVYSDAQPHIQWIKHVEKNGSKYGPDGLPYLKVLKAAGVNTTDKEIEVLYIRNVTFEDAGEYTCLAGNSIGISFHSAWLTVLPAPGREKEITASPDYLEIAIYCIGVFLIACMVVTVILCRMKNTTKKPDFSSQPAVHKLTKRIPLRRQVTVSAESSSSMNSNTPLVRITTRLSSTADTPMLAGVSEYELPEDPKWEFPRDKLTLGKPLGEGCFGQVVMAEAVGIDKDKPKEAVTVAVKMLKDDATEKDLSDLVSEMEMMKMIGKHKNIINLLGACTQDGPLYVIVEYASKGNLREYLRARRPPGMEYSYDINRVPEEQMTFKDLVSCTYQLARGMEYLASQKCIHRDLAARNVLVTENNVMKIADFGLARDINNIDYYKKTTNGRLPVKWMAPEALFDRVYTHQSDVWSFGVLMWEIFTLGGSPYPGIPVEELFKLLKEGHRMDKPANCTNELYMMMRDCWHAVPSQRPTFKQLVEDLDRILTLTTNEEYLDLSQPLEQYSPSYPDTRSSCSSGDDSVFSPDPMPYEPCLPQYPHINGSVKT

`C=CC(=O)N1CCC(c2cc3c(Oc4ccc(NC(=O)NC5CC5)c(Cl)c4)ccnc3cc2OC)CC1` gave an IC50 [1] of 0.0031 µM, an IC50 [2] of 0.0126 µM and an IC50 [3] of 0.0526 µM. For the same compound, the IC50 [4] was 0.016 µM, the half-life [5] was 61.9 min and the microsomal CLint [6] was 46.7 µL/min/mg. The Papp at 16 h, 10 µM [7] was 123 nm/s, the pKa [8] was 5.77 and the C0 [9] was 3.29 µg/mL. For the same compound, the Cmax [10] was 1.84 µg/mL, the half-life [11] was 15.6 min and the Tmax [12] was 4.8 min. The AUC(0-inf) [13] was 0.572 µg·h/mL, the MRT last [14] was 10.8 min and the clearance [15] was 3.48 L/h/kg. The Vd [16] was 1.32 L/kg, the half-life [17] was 149 min and the Tmax [18] was 15 min. The AUC(0-t) [19] was 1.73 µg·h/mL, the AUC(0-inf) [20] was 1.97 µg·h/mL and the MRT last [21] was 119 min. It also gave an MRT [22] of 190 min, a Cmax [23] of 14.6 µg/mL and a half-life [24] of 193 min. The half-life [25] was 145 min, the Tmax [26] was 30 min and the Tmax [27] was 30 min. The AUC(0-t) [28] was 14.9 µg·h/mL, the AUC(0-t) [29] was 28.1 µg·h/mL and the AUC(0-inf) [30] was 7.95 µg·h/mL. The AUC(0-inf) [31] was 28.2 µg·h/mL, the IC50 [32] was 0.357 µM and the IC50 [33] was 7.23 µM. For the same compound, the IC50 [34] was < 0.00031 µM, the IC50 [35] was 0.0018 µM and the Activity [36] was 88.2%. The Activity [37] was 89.6%, the Activity [38] was 67% and the Activity [39] was “Active”.
